Patent US9663508B2, “Biaryl acyl-sulfonamide compounds as sodium channel inhibitors” (AMGEN INC., priority 2013, dated 2017)

biological target: human Nav1.7 (Homo sapiens (Human), UniProt Q15858); assay: Nav 1.7 in vitro PatchXpress (PX) assay; assay type: cell-based; settings: not given
Sequence (Q15858 whole entry): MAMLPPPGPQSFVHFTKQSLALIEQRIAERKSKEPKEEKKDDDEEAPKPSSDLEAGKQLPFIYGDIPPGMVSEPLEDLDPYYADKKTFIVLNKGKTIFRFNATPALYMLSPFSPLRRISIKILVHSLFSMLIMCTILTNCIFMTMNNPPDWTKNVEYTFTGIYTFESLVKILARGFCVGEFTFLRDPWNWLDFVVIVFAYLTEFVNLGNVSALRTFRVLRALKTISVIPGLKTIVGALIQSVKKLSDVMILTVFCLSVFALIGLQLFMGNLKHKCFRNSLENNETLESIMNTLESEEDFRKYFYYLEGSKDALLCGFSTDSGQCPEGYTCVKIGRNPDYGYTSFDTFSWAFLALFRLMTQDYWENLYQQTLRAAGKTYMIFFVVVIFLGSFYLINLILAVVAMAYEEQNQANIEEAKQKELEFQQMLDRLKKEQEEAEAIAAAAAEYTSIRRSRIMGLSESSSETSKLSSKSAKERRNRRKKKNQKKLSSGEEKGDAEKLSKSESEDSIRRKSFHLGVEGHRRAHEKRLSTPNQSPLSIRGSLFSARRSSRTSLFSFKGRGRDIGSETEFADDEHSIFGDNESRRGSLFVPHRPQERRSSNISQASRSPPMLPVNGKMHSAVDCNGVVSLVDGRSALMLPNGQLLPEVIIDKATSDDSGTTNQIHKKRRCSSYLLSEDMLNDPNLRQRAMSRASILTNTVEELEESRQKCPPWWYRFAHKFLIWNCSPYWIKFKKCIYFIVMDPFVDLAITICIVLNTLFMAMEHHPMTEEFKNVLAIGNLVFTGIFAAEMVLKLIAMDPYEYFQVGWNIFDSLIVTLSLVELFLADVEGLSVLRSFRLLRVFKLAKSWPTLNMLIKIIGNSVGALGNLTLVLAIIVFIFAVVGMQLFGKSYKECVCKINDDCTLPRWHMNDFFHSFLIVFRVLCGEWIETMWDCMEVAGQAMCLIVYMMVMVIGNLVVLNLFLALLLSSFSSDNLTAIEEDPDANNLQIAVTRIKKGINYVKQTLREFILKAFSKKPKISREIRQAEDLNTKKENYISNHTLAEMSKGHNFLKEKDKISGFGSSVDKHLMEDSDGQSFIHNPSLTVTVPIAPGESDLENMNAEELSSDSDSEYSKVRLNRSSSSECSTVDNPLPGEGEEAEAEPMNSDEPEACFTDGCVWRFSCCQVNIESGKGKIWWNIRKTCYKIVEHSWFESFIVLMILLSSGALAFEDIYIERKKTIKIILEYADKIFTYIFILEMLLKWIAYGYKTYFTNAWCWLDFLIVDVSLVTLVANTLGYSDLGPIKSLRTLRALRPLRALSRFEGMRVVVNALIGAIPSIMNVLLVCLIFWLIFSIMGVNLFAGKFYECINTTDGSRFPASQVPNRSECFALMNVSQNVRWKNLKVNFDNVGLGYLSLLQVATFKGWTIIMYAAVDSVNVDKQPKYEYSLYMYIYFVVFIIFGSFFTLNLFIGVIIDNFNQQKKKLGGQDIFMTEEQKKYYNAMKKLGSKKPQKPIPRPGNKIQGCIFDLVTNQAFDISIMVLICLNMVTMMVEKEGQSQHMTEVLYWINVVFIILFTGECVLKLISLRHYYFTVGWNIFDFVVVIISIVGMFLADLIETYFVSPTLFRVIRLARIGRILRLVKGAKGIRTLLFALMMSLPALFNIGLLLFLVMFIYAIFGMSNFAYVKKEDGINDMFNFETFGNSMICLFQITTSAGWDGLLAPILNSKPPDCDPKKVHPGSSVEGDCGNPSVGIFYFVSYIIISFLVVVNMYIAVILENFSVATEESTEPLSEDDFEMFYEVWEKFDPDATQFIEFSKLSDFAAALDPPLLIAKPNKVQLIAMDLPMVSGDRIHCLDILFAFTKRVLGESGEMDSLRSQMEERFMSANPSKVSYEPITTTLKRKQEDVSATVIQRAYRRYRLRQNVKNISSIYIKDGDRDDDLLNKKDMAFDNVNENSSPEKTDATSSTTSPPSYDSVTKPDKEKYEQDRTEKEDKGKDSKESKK

SMILES | IC50
COc1cc(C(=O)NS(C)(=O)=O)ccc1-c1cnc(Oc2ccc(Cl)cc2Cl)c(C#N)c1 [Example 691, 4-(5-cyano-6-(2,4-dichlorophenoxy)-3-pyridinyl)-3-methoxy-N-(methylsulfonyl)benzamide] | 83.8 nM
COc1cc(C(=O)NS(C)(=O)=O)ccc1-c1cnc(Oc2ccc(Cl)c(Cl)c2)c(C#N)c1 [Example 692, 4-(5-cyano-6-(3,4-dichlorophenoxy)-3-pyridinyl)-3-methoxy-N-(methylsulfonyl)benzamide] | 60.3 nM
COc1cc(C(=O)NS(C)(=O)=O)c(F)cc1-c1cnc(N(C)C2CCC2)c(Cl)c1 [Example 697, 4-(5-chloro-6-(cyclobutyl(methyl)amino)-3-pyridinyl)-2-fluoro-5-methoxy-N-(methylsulfonyl)benzamide] | 146 nM
COc1cc(C(=O)NS(C)(=O)=O)c(F)cc1-c1cnc(OC2CCC2)c(Cl)c1 [Example 702, 4-(5-chloro-6-(cyclobutyloxy)-3-pyridinyl)-2-fluoro-5-methoxy-N-(methylsulfonyl)benzamide] | 68.4 nM

Continued, values first:

IC50 | SMILES
22.1 nM | COc1cc(C(=O)NS(C)(=O)=O)ccc1-c1cnc(Oc2c(Cl)cc(C)cc2Cl)c(C#N)c1 [Example 693, 4-(5-cyano-6-(2,6-dichloro-4-methylphenoxy)-3-pyridinyl)-3-methoxy-N-(methylsulfonyl)benzamide]
46.8 nM | COc1cc(C(=O)NS(C)(=O)=O)c(F)cc1-c1cnc(Oc2cccc(Cl)c2C)c(Cl)c1 [Example 704, 4-(5-chloro-6-(3-chloro-2-methylphenoxy)-3-pyridinyl)-2-fluoro-5-methoxy-N-(methylsulfonyl)benzamide]

same assay, conditions: in-vitro Nav 1.7 PX data

SMILES | IC50
COc1cc(C(=O)NS(C)(=O)=O)c(F)cc1-c1cnc(Oc2cc(F)ccc2F)c(Cl)c1 [Example 706, 4-(5-chloro-6-(2,5-difluorophenoxy)-3-pyridinyl)-2-fluoro-5-methoxy-N-(methylsulfonyl)benzamide] | 130 nM
COc1cc(C(=O)NS(C)(=O)=O)c(F)cc1-c1cnc(Oc2cc3ccccc3cc2Cl)c(Cl)c1 [Example 715, 4-(5-chloro-6-((3-chloro-2-naphthalenyl)oxy)-3-pyridinyl)-2-fluoro-5-methoxy-N-(methylsulfonyl)benzamide] | 98.8 nM
COc1cc(Oc2ncc(-c3cc(F)c(C(=O)NS(C)(=O)=O)cc3OC)cc2Cl)c(Cl)cc1Cl [Example 716, 4-(5-chloro-6-(2,4-dichloro-5-methoxyphenoxy)-3-pyridinyl)-2-fluoro-5-methoxy-N-(methylsulfonyl)benzamide] | 91.7 nM
COc1cc(C(=O)NS(C)(=O)=O)c(F)cc1-c1cnc(OCC2C(C)(C)C2(C)C)c(Cl)c1 [Example 718, 4-(5-chloro-6-((2,2,3,3-tetramethylcyclopropyl)methoxy)-3-pyridinyl)-2-fluoro-5-methoxy-N-(methylsulfonyl)benzamide] | 145 nM
COc1cc(C(=O)NS(C)(=O)=O)c(F)cc1-c1cnc(OC(C)C2CCC2)c(Cl)c1 (centres unmarked) [Example 719, 4-(5-Chloro-6-(1-Cyclobutylethoxy)Pyridin-3-yl)-2-Fluoro-5-Methoxy-N-(Methylsulfonyl)Benzamide] | 89 nM
COc1cc(C(=O)NS(C)(=O)=O)c(F)cc1-c1cnc(N[C@@H]2CC23CCCC3)c(Cl)c1 [Example 720, 4-(5-chloro-6-((1R)-spiro[2.4]hept-1-ylamino)-3-pyridinyl)-2-fluoro-5-methoxy-N-(methylsulfonyl)benzamide, 4-(5-chloro-6-((1S)-spiro[2.4]hept-1-ylamino)-3-pyridinyl)-2-fluoro-5-methoxy-N-(methylsulfonyl)benzamide] | 84.4 nM
COc1cc(C(=O)NS(C)(=O)=O)c(F)cc1-c1cnc(NCC2CC(C)(C)C2)c(Cl)c1 [Example 723, 4-(5-chloro-6-(((3,3-dimethylcyclobutyl)methyl)amino)-3-pyridinyl)-2-fluoro-5-methoxy-N-(methylsulfonyl)benzamide] | 74.8 nM
COc1cc(C(=O)NS(C)(=O)=O)c(F)cc1-c1cnc(O[C@@H](C)CC(C)C)c(Cl)c1 [Example 726, 4-(5-chloro-6-(((1S)-1,3-dimethylbutyl)oxy)-3-pyridinyl)-2-fluoro-5-methoxy-N-(methylsulfonyl)benzamide] | 80.5 nM
COc1cc(C(=O)NS(C)(=O)=O)c(F)cc1-c1cnc(O[C@@H]2CCC[C@H]2C)c(Cl)c1 [Example 727, 4-(5-chloro-6-(((1R,2R)-2-methylcyclopentyl)oxy)-3-pyridinyl)-2-fluoro-5-methoxy-N-(methylsulfonyl)benzamide] | 102 nM
COc1cc(C(=O)NS(C)(=O)=O)c(F)cc1-c1cnc(Sc2ccc(C)cc2)c(Cl)c1 [Example 728, 4-(5-chloro-6-((4-methylphenyl)sulfanyl)-3-pyridinyl)-2-fluoro-5-methoxy-N-(methylsulfonyl)benzamide] | 49.5 nM
COc1cc(C(=O)NS(C)(=O)=O)c(F)cc1-c1cnc(SCc2cc(F)ccc2F)c(Cl)c1 [Example 730, 4-(5-chloro-6-((2,5-difluorobenzyl)sulfanyl)-3-pyridinyl)-2-fluoro-5-methoxy-N-(methylsulfonyl)benzamide] | 58.5 nM
CC[C@@H](Oc1ncc(-c2cc(F)c(C(=O)NS(C)(=O)=O)cc2OC)cc1Cl)C(F)(F)F [Example 732, 4-(5-chloro-6-(((1R)-1-(trifluoromethyl)propyl)oxy)-3-pyridinyl)-2-fluoro-5-methoxy-N-(methylsulfonyl)benzamide, 4-(5-chloro-6-(((1S)-1-(trifluoromethyl)propyl)oxy)-3-pyridinyl)-2-fluoro-5-methoxy-N-(methylsulfonyl)benzamide] | 104 nM
COc1cc(C(=O)NS(C)(=O)=O)c(F)cc1-c1cnc(OC2(C(F)(F)F)CCC2)c(Cl)c1 [Example 734, 4-(5-chloro-6-((1-(trifluoromethyl)cyclobutyl)oxy)-3-pyridinyl)-2-fluoro-5-methoxy-N-(methylsulfonyl)benzamide] | 58.7 nM
COc1cc(C(=O)NS(C)(=O)=O)c(F)cc1-c1cnc(Oc2c(Cl)cc(F)cc2Cl)c(Cl)c1 [Example 737, 4-(5-chloro-6-(2,6-dichloro-4-fluorophenoxy)-3-pyridinyl)-2-fluoro-5-methoxy-N-(methylsulfonyl)benzamide] | 100 nM
COc1cc(C(=O)NS(C)(=O)=O)c(F)cc1-c1cnc(Oc2ccc(Cl)cc2Cl)c(Cl)c1 [Example 738, 4-(5-chloro-6-(2,4-dichlorophenoxy)-3-pyridinyl)-2-fluoro-5-methoxy-N-(methylsulfonyl)benzamide] | 37 nM

Continued, values first:

IC50 | SMILES
98.6 nM | COc1cc(C(=O)NS(C)(=O)=O)c(F)cc1-c1cnc(OCC2(C)CCCCC2)c(Cl)c1 [Example 714, 4-(5-chloro-6-((1-methylcyclohexyl)methoxy)-3-pyridinyl)-2-fluoro-5-methoxy-N-(methylsulfonyl)benzamide]
99.3 nM | COc1cc(C(=O)NS(C)(=O)=O)c(F)cc1-c1cnc(Oc2ccc3ccccc3c2Cl)c(Cl)c1 [Example 717, 4-(5-chloro-6-((1-chloro-2-naphthalenyl)oxy)-3-pyridinyl)-2-fluoro-5-methoxy-N-(methylsulfonyl)benzamide]
87.2 nM | COc1cc(C(=O)NS(C)(=O)=O)c(F)cc1-c1cnc(NCC2CCC(C)(C)CC2)c(Cl)c1 [Example 721, 4-(5-chloro-6-(((4,4-dimethylcyclohexyl)methyl)amino)-3-pyridinyl)-2-fluoro-5-methoxy-N-(methylsulfonyl)benzamide]
110 nM | COc1cc(C(=O)NS(C)(=O)=O)c(F)cc1-c1cnc(N[C@@H]2CCC23CCC3)c(Cl)c1 [Example 722, 4-(5-chloro-6-((1R)-spiro[3.3]hept-1-ylamino)-3-pyridinyl)-2-fluoro-5-methoxy-N-(methylsulfonyl)benzamide, 4-(5-chloro-6-((1S)-spiro[3.3]hept-1-ylamino)-3-pyridinyl)-2-fluoro-5-methoxy-N-(methylsulfonyl)benzamide]
106 nM | COc1cc(C(=O)NS(C)(=O)=O)c(F)cc1-c1cnc(NC2CCC(C)(C)CC2)c(Cl)c1 [Example 724, 4-(5-chloro-6-((4,4-dimethylcyclohexyl)amino)-3-pyridinyl)-2-fluoro-5-methoxy-N-(methylsulfonyl)benzamide]
96.5 nM | CCC(CC)Nc1ncc(-c2cc(F)c(C(=O)NS(C)(=O)=O)cc2OC)cc1Cl [Example 725, 4-(5-chloro-6-((1-ethylpropyl)amino)-3-pyridinyl)-2-fluoro-5-methoxy-N-(methylsulfonyl)benzamide]
69.5 nM | COc1cc(C(=O)NS(C)(=O)=O)c(F)cc1-c1cnc(Sc2cc(C)cc(C)c2)c(Cl)c1 [Example 729, 4-(5-chloro-6-((3,5-dimethylphenyl)sulfanyl)-3-pyridinyl)-2-fluoro-5-methoxy-N-(methylsulfonyl)benzamide]
106 nM | COc1cc(C(=O)NS(C)(=O)=O)c(F)cc1-c1cnc(NCCC2CCCC2)c(Cl)c1 [Example 731, 4-(5-chloro-6-((2-cyclopentylethyl)amino)-3-pyridinyl)-2-fluoro-5-methoxy-N-(methylsulfonyl)benzamide]
220 nM | COc1cc(C(=O)NS(C)(=O)=O)c(F)cc1-c1cnc(O[C@@H]2CC[C@H]2C)c(Cl)c1 [Example 733, 4-(5-chloro-6-(((1R,2R)-2-methylcyclobutyl)oxy)-3-pyridinyl)-2-fluoro-5-methoxy-N-(methylsulfonyl)benzamide, 4-(5-chloro-6-(((1S,2S)-2-methylcyclobutyl)oxy)-3-pyridinyl)-2-fluoro-5-methoxy-N-(methylsulfonyl)benzamide]
59.1 nM | COc1cc(C(=O)NS(C)(=O)=O)c(F)cc1-c1cnc(O[C@H]2C[C@H](C)C2)c(Cl)c1 [Example 735, 4-(5-chloro-6-((trans-3-methylcyclobutyl)oxy)-3-pyridinyl)-2-fluoro-5-methoxy-N-(methylsulfonyl)benzamide]
84 nM | CC[C@@H](Oc1ncc(-c2cc(F)c(C(=O)NS(C)(=O)=O)cc2OC)cc1Cl)C(F)(F)F [Example 736, 4-(5-chloro-6-(((1R)-1-(trifluoromethyl)propyl)oxy)-3-pyridinyl)-2-fluoro-5-methoxy-N-(methylsulfonyl)benzamide]
